Experiments:
[1] = assay type: physicochemical
Experimental: In order to investigate applicability of the compound (o) obtained in Example 7-c to a wet process, a solubility test of the compound in various solvents was conducted. In addition, a solubility test of pentacene was also conducted as reference.
Specifically, 20 mg of a sample was weighed and it was visually judged whether it dissolves in 10 g of a solvent at room temperature (0.2% by weight).

Row | SMILES | melting point [°C] | Solubility in Chloroform [1] | Solubility in Cyclohexane [1] | Solubility in Hexane [1] | Solubility in THF [1] | Solubility in Toluene [1] | Solubility in o-Dichlorobenzene [1]
1 | FC(F)(F)c1c2ccc(C#Cc3ccccc3)cc2c(C(F)(F)F)c2ccc(C#Cc3ccccc3)cc12 [Compound (b1), 2,6-bis(phenylethynyl)-9,10-bis(trifluoromethyl)anthracene] | 215 to 215.5 | – | – | – | – | – | –
2 | c1ccc2cc3cc4cc5ccccc5cc4cc3cc2c1 [Pentacene, pentacene, reference compound] | – | No | No | No | No | No | No
3 | COc1ccc(C#Cc2ccc3c(C(F)(F)F)c4ccccc4c(C(F)(F)F)c3c2)cc1 [Compound (a1), 2-[(4-methoxyphenyl)ethynyl]-9,10-bis(trifluoromethyl)anthracene] | 123.5 to 124.1 | – | – | – | – | – | –
4 | FC(F)(F)c1c2cc3ccccc3cc2c(C(F)(F)F)c2cc3ccccc3cc12 [Compound (o)] | – | Yes | Yes | Yes | Yes | Yes | Yes
